Here are results for ten compounds from ChEMBL document CHEMBL1155134, “Structural basis for the potent calpain inhibitory activity of peptidyl alpha-ketoacids” (J Med Chem, 2008).

SMILES strings stand for the structures. Residues, ends and D or L forms follow the SMILES beside them. *: point of attachment. Cbz = O=C(OCc1ccccc1)*

By Ki is commonly meant the dissociation constant of the complex between target and ligand, obtained from inhibition or displacement. Low values mean tighter binding, high ones weaker binding.

The target of this experiment is T1, Calpain-1 catalytic subunit (Sus scrofa, UniProt P35750).
T1 sequence (P35750 whole entry): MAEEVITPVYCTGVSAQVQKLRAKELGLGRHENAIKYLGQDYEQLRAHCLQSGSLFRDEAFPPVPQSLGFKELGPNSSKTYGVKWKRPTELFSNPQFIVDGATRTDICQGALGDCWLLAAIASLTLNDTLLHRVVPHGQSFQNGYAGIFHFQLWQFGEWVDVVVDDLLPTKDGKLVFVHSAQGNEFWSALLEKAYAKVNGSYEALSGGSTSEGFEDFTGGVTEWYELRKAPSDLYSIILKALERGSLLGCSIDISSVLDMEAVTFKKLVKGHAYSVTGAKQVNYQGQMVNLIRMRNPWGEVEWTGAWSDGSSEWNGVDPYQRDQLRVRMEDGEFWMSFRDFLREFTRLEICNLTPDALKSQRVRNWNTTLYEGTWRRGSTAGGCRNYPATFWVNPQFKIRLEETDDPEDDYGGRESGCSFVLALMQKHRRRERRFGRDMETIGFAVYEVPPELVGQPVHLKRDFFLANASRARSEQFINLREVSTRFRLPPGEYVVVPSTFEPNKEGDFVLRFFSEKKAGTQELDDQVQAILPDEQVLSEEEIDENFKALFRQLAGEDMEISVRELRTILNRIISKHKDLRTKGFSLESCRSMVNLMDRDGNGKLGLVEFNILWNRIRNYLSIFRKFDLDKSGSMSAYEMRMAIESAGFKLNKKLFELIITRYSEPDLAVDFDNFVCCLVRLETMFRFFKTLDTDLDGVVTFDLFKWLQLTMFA
In words: Inhibition of pig erythrocyte mu-calpain by fluorometric assay.
The compound `CC(C)[C@H](NC(=O)OCc1ccccc1)C(=O)N[C@H](C=O)Cc1ccccc1` (Cbz-Val-Phe-aldehyde) returned a Ki of 10 nM.
In turn, `CC(C)C[C@H](NC(=O)CCC1CCCCC1)C(=O)NC(Cc1ccccc1)C(=O)C(=O)O` (mixture of isomers) showed a Ki of 50 nM.
As to `CC(C)C[C@H](NC(=O)CC1c2ccccc2-c2ccccc21)C(=O)NC(Cc1ccccc1)C(=O)C(=O)O` (mixture of isomers), affinity was put at a Ki of 8 nM.
Consider `COC(=O)C(=O)C(Cc1ccccc1)NC(=O)[C@H](CC(C)C)NC(=O)CC12CC3CC(CC(C3)C1)C2` (mixture of isomers), for which the inhibition constant (Ki) was determined as 450 nM.
Compound `COC(=O)C(=O)C(Cc1ccccc1)NC(=O)[C@H](CC(C)C)NC(=O)C(c1ccccc1)c1ccccc1` (mixture of isomers) showed a Ki of 944 nM.
The compound `CC(C)C[C@H](NC(=O)C(c1ccccc1)c1ccccc1)C(=O)NC(Cc1ccccc1)C(=O)C(=O)O` (mixture of isomers) showed a Ki of 108 nM.
Next, `CC(C)C[C@H](NC(=O)CC(c1ccccc1)c1ccccc1)C(=O)NC(Cc1ccccc1)C(=O)C(=O)O` (mixture of isomers): 63 nM; `COC(=O)C(=O)C(Cc1ccccc1)NC(=O)[C@H](CC(C)C)NC(=O)CC1c2ccccc2-c2ccccc21` (mixture of isomers): 1200 nM.
For `CC(C)C[C@H](NC(=O)CC12CC3CC(CC(C3)C1)C2)C(=O)NC(Cc1ccccc1)C(=O)C(=O)O` (mixture of isomers), the Ki was 41 nM.
`COC(=O)C(=O)C(Cc1ccccc1)NC(=O)[C@H](CC(C)C)NC(=O)CCC1CCCCC1` (mixture of isomers): the inhibition constant Ki stood at 1050 nM.
